# Laboratory results from patent US8269007B2, “Crystalline form II of 7-(dimethoxy-methyl) camptothecin, its use as intermediate and products obtained therefrom” (Sigma-Tau Industrie Farmaceutiche Riunite SpA, priority 2007, dated 2012).
# Test: Thermal behaviour (TGA melting range apparatus Mettler TG 50, confirmed by DSC Mettler DSC 30)
# Settings: for decomposition temperature: heat ramp 20° C./min (TGA/DSC)
Compound,"thermal stability of one crystal form compared with the other (FT-IR, powder x-ray and TGA / DSC-TGA comparison of Form I and Form II)",decomposition temperature (listed as 7-(dimethoxy-methyl)camptothecin form I) [°C],decomposition temperature (listed as form I) [°C],decomposition temperature [°C]
"CC[C@@]1(O)C(=O)OCc2c1cc1n(c2=O)Cc2c-1nc1ccccc1c2C(OC)OC [Form I, 7-(dimethoxy-methyl)camptothecin]",less stable,123.38,123.38,
"CC[C@@]1(O)C(=O)OCc2c1cc1n(c2=O)Cc2c-1nc1ccccc1c2C(OC)OC [Form II, (4S)-11-(dimethoxymethyl)-4-ethyl-4-hydroxy-1H-pyrano[3′,4′:6,7]indolizino[1,2-b]quinoline-3,14(4H,12H)-dione]",,,,173.56
